Results on 42 compounds are retold here after patent publication US20240199634A1, “CYCLIC COMPOUNDS AND METHODS OF USING SAME” (SCHRÖDINGER, INC., priority 2021, published 2024).

Molecules are shown by their SMILES.

For orientation: IC50 means the concentration that inhibits the measured activity by half.

One assay concerns phosphorylation of MCM2 S53 in colo205 cells. The assay is described as follows: Phosphorylated MCM2 MSD Electrochemiluminescence Assay. The class given is cell-based. The following applies: Homo sapiens, COLO 205, 20 h incubation, read-out: pMCM2-S53 MSD Colo205 IC50. The protocol:
Phosphorylated MCM2 MSD Electrochemiluminescence Assay
The effect of CDC7 inhibitors on cellular phosphorylation of the CDC7 substrate MCM2 was determined using the following protocol:
A total of 40,000 colo205 cells in 100 μL culture medium (1640 medium+10% Fetal bovine serum+1% Penicillin-Streptomycin) were plated in 96-well cell culture plates and allowed to attach for 6 hours. 3-fold serial dilutions of test compounds were prepared in completed PBS at 25× final concentration and 4 μL of each were added to the cells and incubated for 20 hours at 37° C., 5% CO2. Each concentration was tested in duplicate. After the 20 h incubation, cells were washed with 150 μL PBS and lysed with 40 μL MSD lysis buffer (obtained from Meso Scale Diagnostics) supplied with 1× complete ULTRA cocktail inhibitor (obtained from Roche). To detect phosphorylation of MCM2 S53, 30 μL of capture antibody solution (obtained from Abnova, catalog number H00004171-M01, 1:500) was added to each well of MULTI-ARRAY 96-well High Bind Plate, and incubated overnight. The antibody solution was removed, wells blocked with BSA solution and plates washed, followed by addition of 30 μl of cell lysate per well. After 2 h incubation, plates were washed. 30 μL of 1× detection antibody solution (obtained from Abcam, catalog number ab109133, 1:1000) was then added to each well and incubate for 1 hour. Plates were washed and 30 μL of 1× secondary antibody solution (obtained from MSD, catalog number R32AB-1, 1:5000) was added to each well and incubate for 1 hour. Plates were washed and 150 μL of 1× Read Buffer T was added to each well of the MSD plate. The electrochemiluminescence signal was measured on a MESO SECTOR 5600 plate reader. The percentage of remaining phosphorylated MCM2 signal was calculated following the equation below.
[formula] • HC (high control): Cells treated with DMSO • Cpds: Cells treated with test compounds • LC (low control): Cells treated with positive control CDC7 inhibitor
Take `COC12CCC(CC1)c1c2[nH]c(=O)c2sc(-c3cn[nH]c3)cc12` [Compound 7, 6-methoxy-2-(1H-pyrazol-4-yl)-6,7,8,9-tetrahydro-6,9-ethanothieno[2,3-c]quinolin-4(5H)-one]: the IC50 was 20 to 50 nM.

On to `CC(C)C1(O)COCc2c1[nH]c(=O)c1sc(-c3c[nH]nc3F)cc21` (single isomer, unassigned) [Compound 27], for which the IC50 is ≤ 5 nM.

Regarding `CC1(C)COCc2c1[nH]c(=O)c1sc(-c3cn[nH]c3)cc21` [Compound 58, 4,4-dimethyl-8-(1H-pyrazol-4-yl)-1,3,4,5-tetrahydro-6H-pyrano[4,3-b]thieno[3,2-d]pyridin-6-one], the IC50 is > 50 nM.

Regarding `Cn1nccc1-c1cc2c3c([nH]c(=O)c2s1)C(O)(C(F)(F)F)COC3` (single isomer, unassigned) [Compound 30], the IC50 was > 50 nM.

Turning to `CC(C)(C)[C@@]1(O)COCc2c1[nH]c(=O)c1sc(-c3ccncc3)cc21` (single isomer, unassigned) [Compound 22], the IC50 is ≤ 5 nM.

Take `CC(C)C1(O)COCc2c1[nH]c(=O)c1sc(-c3ccncc3)cc21` (single isomer, unassigned) [Compound 44]: the concentration for half-maximal inhibition (IC50) is 5 to 20 nM.

On to `CC(C)(C)[C@@]1(O)COCc2c1[nH]c(=O)c1sc(-c3cn[nH]c3)cc21` (single isomer, unassigned) [Compound 20], for which the IC50 was ≤ 5 nM.

Take `O=c1[nH]c2c(c3cc(-c4cn[nH]c4)sc13)CCCC2(O)C(F)F` (single isomer, unassigned) [Compound 37]: the IC50 was in the range of 5 to 20 nM.

The target in the next assay is T1, Full length human CDC7 protein co-expressed with DBF4 (Homo sapiens, UniProt O00311).
T1 construct: Full length human CDC7 protein co-expressed with DBF4; purchased SignalChem (China)
T1 sequence (O00311 whole entry): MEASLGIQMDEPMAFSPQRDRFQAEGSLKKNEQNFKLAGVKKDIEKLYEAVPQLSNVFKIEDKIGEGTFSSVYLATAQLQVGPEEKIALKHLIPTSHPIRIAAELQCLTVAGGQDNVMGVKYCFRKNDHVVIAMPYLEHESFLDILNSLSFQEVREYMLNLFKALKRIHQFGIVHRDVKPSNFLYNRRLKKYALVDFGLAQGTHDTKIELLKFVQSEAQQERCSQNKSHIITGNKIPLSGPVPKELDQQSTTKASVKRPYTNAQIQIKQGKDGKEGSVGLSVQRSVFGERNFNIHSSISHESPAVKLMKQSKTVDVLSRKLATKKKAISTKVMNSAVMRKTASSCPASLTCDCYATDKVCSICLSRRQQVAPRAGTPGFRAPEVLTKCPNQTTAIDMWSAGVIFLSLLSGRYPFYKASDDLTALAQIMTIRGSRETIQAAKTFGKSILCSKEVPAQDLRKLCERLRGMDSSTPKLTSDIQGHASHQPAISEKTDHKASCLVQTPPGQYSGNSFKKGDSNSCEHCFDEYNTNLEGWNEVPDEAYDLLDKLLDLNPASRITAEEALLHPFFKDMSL
T1 sequence (Q9UBU7 whole entry partner): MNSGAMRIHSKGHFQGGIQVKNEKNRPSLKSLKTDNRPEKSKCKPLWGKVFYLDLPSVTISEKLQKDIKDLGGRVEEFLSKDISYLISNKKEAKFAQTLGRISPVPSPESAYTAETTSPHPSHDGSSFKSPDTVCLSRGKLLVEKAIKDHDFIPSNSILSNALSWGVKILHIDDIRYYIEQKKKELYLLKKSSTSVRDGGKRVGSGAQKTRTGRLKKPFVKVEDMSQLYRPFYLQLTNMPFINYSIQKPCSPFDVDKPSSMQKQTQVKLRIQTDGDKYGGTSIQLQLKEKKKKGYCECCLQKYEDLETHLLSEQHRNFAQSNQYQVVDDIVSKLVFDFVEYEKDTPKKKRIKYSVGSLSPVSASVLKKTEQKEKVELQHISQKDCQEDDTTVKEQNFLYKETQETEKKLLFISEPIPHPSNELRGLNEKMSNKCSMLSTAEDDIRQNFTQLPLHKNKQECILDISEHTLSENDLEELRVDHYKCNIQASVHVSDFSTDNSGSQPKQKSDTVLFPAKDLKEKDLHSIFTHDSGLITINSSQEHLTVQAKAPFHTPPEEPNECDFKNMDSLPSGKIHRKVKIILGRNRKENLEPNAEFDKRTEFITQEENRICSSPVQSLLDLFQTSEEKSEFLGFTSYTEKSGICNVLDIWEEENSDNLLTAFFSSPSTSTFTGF
As to the kind of experiment: CDC7 Kinase Biochemical Assay (ADP-Glo, PDKtide substrate). The conditions noted are these: 0.1 nM CDC7/DBF4, 1 μM ATP, 10 μM PDKtide, 4 h reaction. On the procedure:
CDC7 Kinase Biochemical Assay PROTOCOL:
Full length human CDC7 protein co-expressed with DBF4 was purchased from SignalChem (China). CDC7 kinase activity was determined with PDKtide (SignalChem) as a substrate and by measuring ADP production using the ADP-Glo™ Kinase Assay kit (Promega) following the manufacturer's instructions. The kinase reaction was performed using the following conditions: Buffer: 40 mM Tris pH 7.5, 20 mM MgCl2, 0.1 mg/mL BSA and 50 μM DTT. Final reaction mix contained 0.1 nM CDC7/DBF4, 1 μM ATP and 10 μM PDKtide. The kinase reaction time was 4 h. The ADP-Glo signal was measured using an EnVision plate reader (PerkinELmer).
Percent inhibition of CDC7 kinase activity was calculated based on the following formula:
[formula] • SSample: the signal of compounds • SHigh Ctrl: the signal of high control (DMSO) • SLow Ctrl: the signal of low control (positive control CDC7 inhibitor)
Turning to `COC12CCC(CC1)c1c2[nH]c(=O)c2sc(-c3cn[nH]c3)cc12` [Compound 7, 6-methoxy-2-(1H-pyrazol-4-yl)-6,7,8,9-tetrahydro-6,9-ethanothieno[2,3-c]quinolin-4(5H)-one], the IC50 is ≤ 1 nM.

`CC(C)C1(O)COCc2c1[nH]c(=O)c1sc(-c3c[nH]nc3F)cc21` (single isomer, unassigned) [Compound 27]: the IC50 is ≤ 1 nM.

In the case of `CC1(C)COCc2c1[nH]c(=O)c1sc(-c3cn[nH]c3)cc21` [Compound 58, 4,4-dimethyl-8-(1H-pyrazol-4-yl)-1,3,4,5-tetrahydro-6H-pyrano[4,3-b]thieno[3,2-d]pyridin-6-one], the IC50 fell in the range of 1 to 10 nM.

With `Cn1nccc1-c1cc2c3c([nH]c(=O)c2s1)C(O)(C(F)(F)F)COC3` (single isomer, unassigned) [Compound 30], the IC50 is ≤ 1 nM.

For the compound `CC(C)(C)[C@@]1(O)COCc2c1[nH]c(=O)c1sc(-c3ccncc3)cc21` (single isomer, unassigned) [Compound 22], the IC50 is ≤ 1 nM.

Turning to `CC(C)C1(O)COCc2c1[nH]c(=O)c1sc(-c3ccncc3)cc21` (single isomer, unassigned) [Compound 44], the IC50 was ≤ 1 nM.

Turning to `CC(C)(C)[C@@]1(O)COCc2c1[nH]c(=O)c1sc(-c3cn[nH]c3)cc21` (single isomer, unassigned) [Compound 20], the IC50 was ≤ 1 nM.

As to `O=c1[nH]c2c(c3cc(-c4cn[nH]c4)sc13)CCCC2(O)C(F)F` (single isomer, unassigned) [Compound 37], the IC50 was ≤ 1 nM.

As for `C[C@@]1(CO)CC(F)(F)Cc2c1[nH]c(=O)c1sc(-c3cn[nH]c3)cc21` (single isomer, unassigned) [Compound 15], the IC50 was ≤ 1 nM.

With `COCC1(O)CC(F)(F)Cc2c1[nH]c(=O)c1sc(-c3cn[nH]c3)cc21` (single isomer, unassigned) [Compound 49], the IC50 was ≤ 1 nM.

Consider `CO[C@H]1COCc2c1[nH]c(=O)c1sc(-c3cn[nH]c3)cc21` (single isomer, unassigned) [Compound 10], for which the IC50 is ≤ 1 nM.

With `CCC(C)C1(O)COCc2c1[nH]c(=O)c1sc(-c3cn[nH]c3)cc21` (single isomer, unassigned) [Compound 75], the half-maximal inhibitory concentration (IC50) was > 10 nM.

Consider `CC[C@H](C)[C@]1(O)COCc2c1[nH]c(=O)c1sc(-c3cn[nH]c3)cc21` (single isomer, unassigned) [Compound 77], for which the IC50 is ≤ 1 nM.

For the compound `O=c1[nH]c2c(c3cc(-c4cn[nH]c4)sc13)COCC2(O)C(F)(F)F` (single isomer, unassigned) [Compound 29], the IC50 lay in the range of 1 to 10 nM.

Turning to `O=c1[nH]c2c(c3cc(-c4cn[nH]c4)sc13)CCCC2(O)C(F)F` (single isomer, unassigned) [Compound 36], the IC50 was > 10 nM.

`O=c1[nH]c2c(c3cc(-c4cn[nH]c4)sc13)CCC[C@@H]2N1CCC(F)(F)C1` (single isomer, unassigned) [Compound 6]: the IC50 was > 10 nM.

Turning to `CC(C)C1(O)COCc2c1[nH]c(=O)c1sc(-c3c[nH]nc3F)cc21` (single isomer, unassigned) [Compound 26], the IC50 was in the range of 1 to 10 nM.

Regarding `CC[C@@H](C)[C@@]1(O)COCc2c1[nH]c(=O)c1sc(-c3cn[nH]c3)cc21` (single isomer, unassigned) [Compound 76], the IC50 is ≤ 1 nM.

For the compound `O=c1[nH]c2c(c3cc(-c4cn[nH]c4)sc13)CC(F)(F)C[C@@H]2N1CCC1` (single isomer, unassigned) [Compound 13], the IC50 is ≤ 1 nM.

For `CCC1(O)CC(F)(F)Cc2c1[nH]c(=O)c1sc(-c3cn[nH]c3)cc21` (single isomer, unassigned) [Compound 50], the IC50 lay in the range of 1 to 10 nM.

As for `CC(C)(C)[C@]1(O)COCc2c1[nH]c(=O)c1sc(-c3cn[nH]c3)cc21` (single isomer, unassigned) [Compound 21], the half-inhibitory concentration (IC50) is 1 to 10 nM.

In the case of `CC(C)(C)C1(O)COCc2c1[nH]c(=O)c1sc(-c3c[nH]nc3F)cc21` (single isomer, unassigned) [Compound 66], the IC50 was ≤ 1 nM.

`CC(C)(O)C1(C)OCCc2c1[nH]c(=O)c1sc(-c3cn[nH]c3)cc21` (single isomer, unassigned) [Compound 57] returned an IC50 of 1 to 10 nM.

With `CC(F)(F)C1(O)COCc2c1[nH]c(=O)c1sc(-c3cn[nH]c3)cc21` (single isomer, unassigned) [Compound 96], the IC50 is ≤ 1 nM.

`O=c1[nH]c2c(c3cc(-c4cn[nH]c4)sc13)COCC2(O)C(F)F` (single isomer, unassigned) [Compound 43]: the IC50 lay within 1 to 10 nM.

Take `CC(C)(C)C1(O)COCc2c1[nH]c(=O)c1sc(-c3ccnnc3)cc21` (single isomer, unassigned) [Compound 68]: the IC50 is > 10 nM.

`CC#CC1(O)COCc2c1[nH]c(=O)c1sc(-c3cn[nH]c3)cc21` (single isomer, unassigned) [Compound 72] gave an IC50 of 1 to 10 nM.

As to `CCC(C)(C)C1(O)COCc2c1[nH]c(=O)c1sc(-c3cn[nH]c3)cc21` (single isomer, unassigned) [Compound 81], the IC50 was ≤ 1 nM.

As for `CC1(N2CCCC2)COCc2c1[nH]c(=O)c1sc(-c3cn[nH]c3)cc21` (centres unmarked) [Compound 71, 4-methyl-8-(1H-pyrazol-4-yl)-4-(pyrrolidin-1-yl)-1,3,4,5-tetrahydro-6H-pyrano[4,3-b]thieno[3,2-d]pyridin-6-one], the IC50 is > 10 nM.

Compound `CC1(O)CC(F)(F)Cc2c1[nH]c(=O)c1sc(-c3cn[nH]c3)cc21` (single isomer, unassigned) [Compound 55] yielded an IC50 of 1 to 10 nM.

`CC(C)(C)C1(O)COCc2c1[nH]c(=O)c1sc(-c3ncncc3Cl)cc21` (single isomer, unassigned) [Compound 63]: the IC50 is ≤ 1 nM.

For `Cc1cc(-c2cc3c4c([nH]c(=O)c3s2)C(O)(C(C)(C)C)COC4)ccn1` (single isomer, unassigned) [Compound 62], the IC50 is > 10 nM.

Consider `COC1(C)CCCc2[nH]c(=O)c3sc(-c4cn[nH]c4)cc3c21` (single isomer, unassigned) [Compound 39], for which the IC50 was ≤ 1 nM.

As for `CCC(C)C1(O)COCc2c1[nH]c(=O)c1sc(-c3cn[nH]c3)cc21` (single isomer, unassigned) [Compound 74], the IC50 is > 10 nM.

Turning to `CC1(O)CC(F)(F)Cc2c1[nH]c(=O)c1sc(-c3cn[nH]c3)cc21` (single isomer, unassigned) [Compound 54], the IC50 was ≤ 1 nM.

For the compound `Cc1cc(-c2cc3c4c([nH]c(=O)c3s2)C(O)(C(C)(C)C)COC4)ccn1` (single isomer, unassigned) [Compound 61], the IC50 was ≤ 1 nM.

On to `CN(C)C1(C)COCc2c1[nH]c(=O)c1sc(-c3cn[nH]c3)cc21` (single isomer, unassigned) [Compound 83], for which the IC50 was in the range of 1 to 10 nM.

`C[C@]1(CO)CC(F)(F)Cc2c1[nH]c(=O)c1sc(-c3cn[nH]c3)cc21` (single isomer, unassigned) [Compound 14] had an IC50 of 1 to 10 nM.

For the compound `CC(C)(C)[C@]1(O)COCc2c1[nH]c(=O)c1sc(-c3ccncc3)cc21` (single isomer, unassigned) [Compound 23], the IC50 is > 10 nM.

Turning to `CC(C)C1(O)CCCc2c1[nH]c(=O)c1sc(-c3cn[nH]c3)cc21` (single isomer, unassigned) [Compound 87], the IC50 was ≤ 1 nM.

For `O=c1[nH]c2c(c3cc(-c4cn[nH]c4)sc13)CC(F)(F)C[C@H]2N1CCC1` (single isomer, unassigned) [Compound 12], the IC50 fell in the range of 1 to 10 nM.

As to `CC#CC1(O)COCc2c1[nH]c(=O)c1sc(-c3cn[nH]c3)cc21` (single isomer, unassigned) [Compound 73], the IC50 was > 10 nM.
